Data reported in US20260250318A1, “COMPOSITIONS AND METHODS FOR CROSSING THE BLOOD BRAIN BARRIER” (VOYAGER THERAPEUTICS, INC., priority 2022, published 2026).

Legend:
[1] = test system: brains, heart, liver, muscle, and DRG of the NHPs; assay: Maturation of TTM-001 and TTM-002 capsids, NGS enrichment in NHP tissues; assay type: in vivo; settings: relative to AAV9 control
Procedure, shortened: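 Variants carry mutations within and flanking the loop IV peptide insert: positions 450–466 were triplet-randomized, while positions 449–466 received low-frequency point mutations. The combined pool went into two NHPs, and each peptide was scored by NGS enrichment ratio against AAV9.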

brain = assay: Matured TTM-001 and TTM-002 variants, NGS enrichment in mouse brain; assay type: in vivo, mice; settings: relative to AAV9 control
[2] = NGS fold-enrichment of RNA, NHP brain
[3] = NGS fold-enrichment, DRG of NHPs
[4] = NGS fold-enrichment, NHP liver DNA
[5] = NGS fold-enrichment, NHP liver RNA
[6] = NGS fold-enrichment, NHP muscle
[7] = NGS fold-enrichment, RNA, brain of NHPs
[8] = NGS fold-enrichment, heart of NHPs
[9] = NGS fold-enrichment, liver DNA of NHPs
[10] = NGS fold-enrichment, liver RNA of NHPs
[11] = NGS fold-enrichment, muscle of NHPs
[12] = NGS fold-enrichment, brain of mice
[13] = NGS fold-enrichment, mouse brain
[14] = NGS fold-enrichment of matured AAV capsid variants, NHP brain, RNA

Sequence	Fold Enrichment relative to AAV9, Brain (NHP) [1, 2] [fold]	Fold Enrichment relative to AAV9, DRG (NHP) [1, 3] [fold]	Fold Enrichment relative to AAV9, DRG (NHP) ([1]; NGS fold-enrichment, NHP DRG) [fold]	Fold Enrichment relative to AAV9, Heart (NHP) ([1]; NGS fold-enrichment, NHP heart) [fold]	Fold Enrichment relative to AAV9, Liver DNA (NHP) [1, 4] [fold]	Fold Enrichment relative to AAV9, Liver RNA (NHP) [1, 5] [fold]	Fold Enrichment relative to AAV9, Muscle (NHP) [1, 6] [fold]	Fold Enrichment relative to AAV9, Brain (NHP) [1, 7] [fold]	Fold Enrichment relative to AAV9, Heart (NHP) [1, 8] [fold]	Fold Enrichment relative to AAV9, Liver DNA (NHP) [1, 9] [fold]	Fold Enrichment relative to AAV9, Liver RNA (NHP) [1, 10] [fold]	Fold Enrichment relative to AAV9, Muscle (NHP) [1, 11] [fold]	Fold Enrichment relative to AAV9, Brain (Mouse) (brain; [12]) [fold]	Fold Enrichment relative to AAV9, Brain (Mouse) (brain; [13]) [fold]	also measured
KTEKASGSPHSKAQNQQT	80.285	0.000	0.000	0.041	0.261	0.000	0.000	80.285	0.041	0.261	0.000	0.000	90.390	90.390	–
KTEKGSGSPHSKAQNQQT	105.614	0.053	0.053	0.031	0.169	0.586	0.000	105.614	0.031	0.169	0.586	0.000	84.653	84.653	–
KTEKISGSPHSKAQNQQT	116.603	0.000	0.000	0.000	0.426	0.000	0.000	116.603	0.000	0.426	0.000	0.000	102.978	102.978	–
KTEKMSGSPHSKAQNQQT	169.461	0.523	0.523	0.000	0.158	0.000	0.000	169.461	0.000	0.158	0.000	0.000	109.161	109.161	–
KTEKNSGSPHSKAQNQQT	–	0.000	–	–	–	–	–	73.347	0.000	0.021	0.159	0.044	74.393	–	–
KTEKSSGSPHSKAQNQQT	107.470	0.000	0.000	0.016	0.179	0.977	0.014	107.470	0.016	0.179	0.977	0.014	100.177	100.177	–
KTEKTSGSPHSKAQNQQT	120.337	0.000	0.000	0.355	0.119	0.000	0.000	120.337	0.355	0.119	0.000	0.000	101.467	101.467	–
KTEKVSGSPHSKAQNQQT	84.558	0.000	0.000	0.022	0.424	0.873	0.000	84.558	0.022	0.424	0.873	0.000	112.185	112.185	–
KTELGSGSPHSKAQNQQT	–	–	–	–	–	–	–	–	–	–	–	–	–	–	Fold Enrichment relative to AAV9, Brain (NHP) [1, 14]: 52.232 fold; Fold Enrichment relative to AAV9, DRG (NHP) ([1]; NHP DRG): 0.000 fold; Fold Enrichment relative to AAV9, Heart (NHP) ([1]; NHP heart): 0.007 fold; Fold Enrichment relative to AAV9, Liver DNA (NHP) ([1]; NHP liver, DNA): 0.088 fold; Fold Enrichment relative to AAV9, Liver RNA (NHP) ([1]; NHP liver, RNA): 0.532 fold; Fold Enrichment relative to AAV9, Muscle (NHP) ([1]; NHP muscle): 0.006 fold; Fold Enrichment relative to AAV9, Brain (Mouse) (brain; mouse brain): 87.314 fold
KTELHSGSPHSKAQNQQT	–	0.000	–	–	–	–	–	74.620	0.000	0.089	0.021	0.000	53.124	–	–
KTELRHDSPHKSGQNQQT	98.098	–	0.000	0.019	0.007	0.000	0.000	–	–	–	–	–	–	6.588	–
KTELRSGSPHSKAQNQQT	–	–	–	–	–	–	–	–	–	–	–	–	–	–	Fold Enrichment relative to AAV9, Brain (NHP) [1, 14]: 54.289 fold; Fold Enrichment relative to AAV9, DRG (NHP) ([1]; NHP DRG): 0.000 fold; Fold Enrichment relative to AAV9, Heart (NHP) ([1]; NHP heart): 0.007 fold; Fold Enrichment relative to AAV9, Liver DNA (NHP) ([1]; NHP liver, DNA): 0.239 fold; Fold Enrichment relative to AAV9, Liver RNA (NHP) ([1]; NHP liver, RNA): 0.790 fold; Fold Enrichment relative to AAV9, Muscle (NHP) ([1]; NHP muscle): 0.040 fold; Fold Enrichment relative to AAV9, Brain (Mouse) (brain; mouse brain): 57.814 fold
KTELTSGSPHSKAQNQQT	–	0.000	–	–	–	–	–	74.548	0.000	0.421	0.537	0.000	100.311	–	–
KTELWHDSPHKSGQNQQT	85.323	–	0.057	0.020	0.243	0.000	0.000	–	–	–	–	–	–	9.915	–
KTEMKHDSPHKSGQNQQT	240.075	–	0.000	0.000	0.000	0.000	0.000	–	–	–	–	–	–	3.183	–
KTENASGSPHSKAQNQQT	–	–	–	–	–	–	–	–	–	–	–	–	–	–	Fold Enrichment relative to AAV9, Brain (NHP) [1, 14]: 58.187 fold; Fold Enrichment relative to AAV9, DRG (NHP) ([1]; NHP DRG): 0.000 fold; Fold Enrichment relative to AAV9, Heart (NHP) ([1]; NHP heart): 0.038 fold; Fold Enrichment relative to AAV9, Liver DNA (NHP) ([1]; NHP liver, DNA): 0.129 fold; Fold Enrichment relative to AAV9, Liver RNA (NHP) ([1]; NHP liver, RNA): 0.371 fold; Fold Enrichment relative to AAV9, Muscle (NHP) ([1]; NHP muscle): 0.000 fold; Fold Enrichment relative to AAV9, Brain (Mouse) (brain; mouse brain): 88.439 fold
KTENGSASPHSKALNQQT (KTFNGSASPHSKALNQQT)	84.258	–	0.000	0.122	0.037	0.104	0.000	–	–	–	–	–	–	31.855	–
